Results published in US20220062371A1, “LIGAND-DRUG-CONJUGATES AS SUBSTRATES FOR SELECTIVE CLEAVAGE BY THE EXOPEPTIDASE ACTIVITY OF CATHEPSIN B” (DEBIOPHARM RESEARCH & MANUFACTURING S.A., priority 2017, published 2022).
Like-named read-outs stand apart in the source and are kept apart here. Non-standard residues stand in square brackets, D forms with d. Residues, ends and D or L forms follow the SMILES beside them. Groups on a side chain read outwards from the residue. *: point of attachment. DM1Mal(CH2)2CO = COc1cc2cc(c1Cl)N(C)C(=O)C[C@H](OC(=O)[C@H](C)N(C)C(=O)CCSC1CC(=O)N(CCC(=O)*)C1=O)[C@]1(C)O[C@H]1[C@H](C)[C@@H]1C[C@@](O)(NC(=O)O1)[C@H](OC)/C=C/C=C(\C)C2; Camptothecin(20S-OCO) = CC[C@@]1(OC(=O)*)C(=O)OCc2c1cc1n(c2=O)Cc2cc3ccccc3nc2-1; X2 = CC(=O)N[C@@H](CSC1CC(=O)N(CCC(=O)*)C1=O)C(=O)O; Dolaproine = CO[C@@H]([C@@H]1CCCN1)[C@@H](C)C(=O)O; Dil = CC[C@H](C)[C@H](NC)[C@@H](CC(=O)O)OC; NMe2Val = CC(C)[C@@H](C(=O)*)N(C)C; PEG5 = NCCOCCOCCOCCOCCOCCC(=O)O; PEG4 = NCCOCCOCCOCCOCCC(=O)O; Dab = NCC[C@H](N)C(=O)O

Molecular target: T1, recombinant human Cathepsin B (Homo sapiens, UniProt P07858)
T1 construct: purchased R&D Systems (Bio-Techne AG) 953-CY-010
Assay: Recombinant human Cathepsin B-induced cleavage (in vitro enzymatic cleavage assay, UHPLC-MS/MS)
Format: biochemical
Settings: for half-life at 10 μM: human, Cathepsin B 2 μg/mL, 25 mM MES buffer pH 5.0, 37° C., read-out: T1/2 Compound; for Ratio (T1/2 Compound/T1/2 Reference): reference Cys-MC-Val-Cit-PABC-MMAF
Method: Cat B-induced cleavage of the compounds of the present invention was evaluated according to the in vitro enzymatic cleavage assay using recombinant human Cathepsin B and UHPLC-MS/MS analysis as described below.
Reference compounds Cys-MC-Val-Cit-PABC-MMAF and MMAF were used as positive controls.
The in vitro enzymatic assay was conducted at 37° C. with the test compounds at a concentration of 10 μM (2.5 μM when the test compound is an antibody-drug conjugate) in the presence of activated recombinant human Cathepsin B enzyme at 2 μg/mL in a 25 mM MES buffer pH 5.0. The enzymatic cleavage reaction was stopped for each defined time point by mixing an equal volume of acetonitrile+0.1% FA containing an internal standard (warfarine at 8 μM).
Analysis was conducted using a Waters Acquity UPLC System coupled to a Waters Xevo TQ triple quad mass spectrometer. UHPLC was conducted depending on the test compounds with a BEH C8 1.7 μm 100×2.1 mm or BEH C18 1.7 μm 50×2.1 mm or HSS T3 1.7 μm 50×2.1 mm columns heated at 45° C. or 50° C. and fitted with 2 μm insert filter pre-columns (available from Waters), and solvent systems A1 (H2O+0.1% FA) and B1 (acetonitrile+0.1% FA) at a flow rate of 0.6 mL/min and a 10-95% gradient of B1 over 1.9 min.
MS/MS was performed using electrospray ionization (ESI) interface in positive mode and specific MRM transitions for each tested compound.

Compound | half-life at 10 μM (10 μM test compound) [s] | half-life at 10 μM (pH 5, 10 μM test compound) [s] | Ratio (T1/2 Compound/T1/2 Reference) | cleavage rate compared to reference PABC compound (times faster) (versus Cys-MC-Val-Cit-PABC-MMAF) [fold] | Cat B-induced cleavage, in words
COc1cc2cc(c1Cl)N(C)C(=O)C[C@H](OC(=O)[C@H](C)N(C)C(=O)CCSC1CC(=O)N(CCC(=O)NCCCC[C@H](NC(=O)[C@H](CCCCN)NC(=O)[C@H](Cc3ccccc3)NC(=O)CCOCCOCCOCCOCCNC(=O)CCN3C(=O)CC(SC[C@H](NC(C)=O)C(=O)O)C3=O)C(=O)N[C@@H](Cc3ccccc3)C(=O)N[C@@H](Cc3ccccc3)C(=O)N[C@@H](CCCCN)C(=O)O)C1=O)[C@]1(C)O[C@H]1[C@H](C)[C@@H]1C[C@@](O)(NC(=O)O1)[C@H](OC)/C=C/C=C(\C)C2 (stereo partly drawn) [Compound 28, Ac-Cys-Mal-PEG4-Phe-Lys-Lys(Mal-DM1)-Phe-Phe-Lys-OH] ({X2-PEG4}-FKK(DM1Mal(CH2)2CO)FFK-OH) | 18 | – | – | – | –
CC[C@H](C)[C@@H]([C@@H](CC(=O)N1CCC[C@H]1[C@H](OC)[C@@H](C)C(=O)N[C@@H](Cc1ccccc1)C(=O)N[C@@H](CCCNC(=N)N)C(=O)N[C@@H](CCCCNC(=O)CCOCCOCCOCCOCCOCCNC(=O)CCN1C(=O)CC(SC[C@H](NC(C)=O)C(=O)O)C1=O)C(=O)N[C@@H](Cc1ccccc1)C(=O)O)OC)N(C)C(=O)[C@@H](NC(=O)[C@H](C(C)C)N(C)C)C(C)C (stereo partly drawn) [Compound 1, AF-Arg-Lys(PEG4-Mal-Cys-Ac)-Phe-OH] (NMe2Val-V[Dil][Dolaproine]FRK([PEG5-X2])F-OH) | – | 90 | 0.12 | – | –
CC[C@@]1(OC(=O)NCC[C@H](NC(=O)[C@H](CCCNC(=N)N)NC(=O)[C@H](Cc2ccccc2)NC(=O)CCOCCOCCOCCOCCOCCNC(=O)[C@@H](N)CCCNC(=N)N)C(=O)N[C@@H](Cc2ccccc2)C(=O)O)C(=O)OCc2c1cc1n(c2=O)Cc2cc3ccccc3nc2-1 [Compound 10, Arg-PEG4-Phe-Arg-Dab(CO-CPT)-Phe-OH] (H-R[PEG5]FR[Dab](Camptothecin(20S-OCO))F-OH; N-terminus assumed) | – | 54 | 0.1 | – | –
CC[C@H](C)[C@@H]([C@@H](CC(=O)N1CCC[C@H]1[C@H](OC)[C@@H](C)C(=O)N[C@@H](Cc1ccccc1)C(=O)N[C@@H](CCCNC(N)=O)C(=O)N[C@@H](CCCCn1cc(COC(=O)NCCCC[C@H](NC(=O)CCOCCOCCOCCOCCOCCNC(=O)CCN2C(=O)CC(SC[C@H](NC(C)=O)C(=O)O)C2=O)C(=O)NCCOCCOCCOCCOCCOCCC(=O)N[C@@H](CCCCNC(=O)OCc2cn(CCCC[C@H](NC(=O)[C@H](CCCNC(N)=O)NC(=O)[C@H](Cc3ccccc3)NC(=O)[C@H](C)[C@@H](OC)[C@@H]3CCCN3C(=O)C[C@@H](OC)[C@H]([C@@H](C)CC)N(C)C(=O)[C@@H](NC(=O)[C@H](C(C)C)N(C)C)C(C)C)C(=O)N[C@@H](Cc3ccccc3)C(=O)O)nn2)C(=O)NCC(N)=O)nn1)C(=O)N[C@@H](Cc1ccccc1)C(=O)O)OC)N(C)C(=O)[C@@H](NC(=O)[C@H](C(C)C)N(C)C)C(C)C (stereo partly drawn) [Compound 32, Ac-Cys-Mal-[PEG5-Lys(AF-Cit-Lys(Y)-Phe-OH)]2-Gly-NH2] | 58.8 | – | 0.06 | ~20 | –
Arg-PEG4-Phe-Arg-[Glu(Sar-OCPT)-Phe]2-OH [Compound 17] | – | – | – | – | rapidly released
